In US20170151268A1, “GLYCAN THERAPEUTICS AND RELATED METHODS THEREOF” (KALEIDO BIOSCIENCES, INC., priority 2015, published 2017):
≈ marks a conversion by molar mass, not a printed value.

Key:
[1] = 25° C., reported by Sigma-Aldrich; cited from earlier work
[2] = tested on: Clostridium difficile (strain VPI 10463 (ATCC-43255)); experiment: Mouse model of Clostridium difficile infection, disease-associated phenotypes; type: in vivo
Experimental: This experiment was conducted to analyze the effects of glycan therapeutics in a mouse model of Clostridium difficile infection (Chen et al, 2008, A Mouse Model of Clostridium difficile—Associated Disease. Gastroenterology 135(6), 1984-1992). In this model, normal mice were exposed to an antibiotic regimen that renders them susceptible to C. difficile infection and disease symptoms, similar with respect to their development and manifestation of human clinical disease. In humans, the disease is most often the result of exposure to broad spectrum antibiotics which is thought to result in intestinal dysbiosis and subsequent increased colonic colonization with C. difficile. The increased bio-burden of C. difficile leads to toxin production by the bacterium and colonic inflammation. Clinical manifestations in humans include diarrhea, weight loss, intestinal inflammation, fever and dehydration. The clinical incidence of C. difficile infection and disease is about 750,000 cases per year in the US.
(§1) Mice (female C57BL/6, 8-10 weeks old, 16-18 grams each; Harlan Laboratories, Indianapolis, Ind.) were housed in groups of 3 per cage, with 4 cages per treatment group. Mice were exposed to a cocktail of antibiotics in their drinking water for a period of 9 days, starting on day −14, fourteen days before Clostridium difficile challenge on day 0. The antibiotic cocktail consisted of 1% glucose, kanamycin (0.5 mg/ml), gentamicin (0.044 mg/ml), colistin (1062.5 U/ml), metronidazole (0.269 mg/ml), ciprofloxacin (0.156 mg/ml), ampicillin (0.1 mg/ml) and vancomycin (0.056 mg/ml). Three days prior to Clostridium difficile challenge (on Day −3), mice received a single dose of clindamycin (10 mg/kg) in a volume of 0.5 mL distilled water by oral gavage (PO) (see Table 10). All chemicals were purchased from Sigma-Aldrich Corp. (St. Louis, Mo.). On day 0, mice were challenged with Clostridium difficile (strain VPI 10463 (ATCC-43255)) spores at approximately 4.5 log10 spores per mouse, PO, in a dose volume of 0.5 mL distilled water.
Disease-associated phenotypes were recorded for a duration of ten days starting on the day of Clostridium difficile challenge (on day 0) through day 10. The phenotypes, including lethargy, hunched posture and ruffled coat, wet tail/abdomen and hypothermia were scored from 0 to 4: Normal=0; Lethargic=1; Lethargic+Hunched=2; Lethargic+Hunched+Wet tail/abdomen (diarrhea)=3; and Lethargic+Hunched+Wet tail/abdomen+Hypothermic=4. Death (day 0 to day 10 or 11) and weight (day 1 to day 7 and day 10) of the animals was also monitored and recorded.
In these studies, all animals with wet tail/abdomen (diarrhea; clinical score of “3”) progressed to death. Diarrhea is an indication of colonic inflammation and hemorrhage and is a contributing factor to the weight loss seen in rodent models of C. difficile colonization/infection.
A treatment's ability to protect animals from death through day 6 in these experiments indicates disease prevention, e.g., in a human.
In addition, carriage of Clostridium difficile spores, which is indicative of Clostridium difficile gut colonization in both mice and humans, was assessed daily from day 0 to day 6. For spore CFU enumeration, fecal pellets from the mice were suspended in 50% ethanol in phosphate-buffered saline (PBS) and vortexed. […]
Effects of treatments was assessed by comparing the disease-associated phenotypes in glycan-treated, untreated (plain water) and vancomycin-treated groups. […]

gut microbiota = experiment: Mouse model of Clostridium difficile infection, gut microbiota 16S rRNA sequencing; type: in vivo; conditions: Day 6; predicted from 16S rRNA sequencing using PICRUST
Experimental: as §1
To determine how the gut microbiota composition responds to treatment with glycan therapeutics, 16S rRNA sequencing of fecal pellets on the V4 variable region using standard protocols from the Earth Microbiome Project was performed (www.earthmicrobiome.org/emp-standard-protocols/). […]

Row | Compound | aqueous solubility [1] | aqueous solubility as Brix [1] | animals died by day 10 ([2]; PO gavage QD days 0 to 4) | animals survived to day 7 ([2]; PO gavage QD days 0 to 4) | clinical score of survivors (0 to 4) ([2]; after treatments were discontinued, through day 10 or 11) | C. difficile spores in the feces ([2]; days 0-6) | clinical signs on day 10 ([2]; mouse, in vivo) | predicted functional potential of the gut microbiome to convert primary bile acids to secondary bile acids (gut microbiota)
1 | O=C[C@H](O)[C@@H](O)[C@H](O)[C@H](O)CO [D-glucose] | 909 mg/mL (≈ 5050 mM) | 48 Brix | – | – | – | – | – | –
2 | CN[C@H](CC(C)C)C(=O)N[C@H]1C(=O)N[C@@H](CC(N)=O)C(=O)N[C@H]2C(=O)N[C@H]3C(=O)N[C@H](C(=O)N[C@H](C(=O)O)c4cc(O)cc(O)c4-c4cc3ccc4O)[C@H](O)c3ccc(c(Cl)c3)Oc3cc2cc(c3O[C@@H]2O[C@H](CO)[C@@H](O)[C@H](O)[C@H]2O[C@H]2C[C@](C)(N)[C@H](O)[C@H](C)O2)Oc2ccc(cc2Cl)[C@H]1O [vancomycin] | – | – | 17% | 100% | above 0 | no detectable spores | exhibited clinical signs | not observed
